# Measured values from publication PMC6895048, “4,5-Disubstituted 1,2,3-triazoles: Effective Inhibition of Indoleamine 2,3-Dioxygenase 1 Enzyme Regulates T cell Activity and Mitigates Tumor Growth” (Scientific Reports, 2019).
# Experiments:
# TDO enzyme = target: T1, TDO enzyme (Homo sapiens, UniProt P48775); assay: HPLC based TDO inhibition assay; assay type: biochemical
# T1 construct: 6xHis (N); made in house; host or cells: Escherichia coli BL21 (DE3) (pET 28a vector)
# Experimental: HPLC based IDO1, and TDO inhibition assays were performed according to the earlier reported procedure[19],[27]–[30]. The reaction mixture (250 µL) contained KPB (100 mM, pH 6.5 for IDO1 and 50 mM, pH 8.0 for TDO), sodium ascorbate (20 mM), methylene blue (10 µM), catalase (240 nM, from bovine liver, Sigma), L-Trp (150 µM), purified enzyme (40 nM for IDO1 and 25 nM for TDO), DMSO (0.05%, v/v), Triton-X 100 (0.01%, v/v) and inhibitors. The concentration of the compound was varied from 100 µM to 32 nM by serial dilution. The mixture was incubated at 37 °C for 1 hour in the absence and presence of the synthesized compounds. The reaction was then quenched using 50 µL of 30% (w/v) trichloroacetic acid and incubated at 65 °C for additional 15 minutes to allow complete hydrolysis of N-formylkynurenine to kynurenine. After that, the mixture was centrifuged at 10,000 rpm for 10 minutes, and 100 µL of clear solution was transferred to another tube for HPLC analysis. Then, 20 µL of the reaction mixture was then injected through Ascentis® express C18, 2.7 µm HPLC column with a flow rate of 0.5 mL/minute of the mobile phase containing 50% sodium citrate buffer (40 mM, pH 2.25) and 50% methanol (v/v) with 400 µM SDS. The area under the curve at 365 nm chromatogram corresponding to the kynurenine formation was recorded, and % of inhibition was calculated using standard curve prepared with pure kynurenine (from Sigma) under similar experimental conditions.
# [1] = target: T2, purified human TDO enzyme (Homo sapiens, UniProt P48775); assay: TDO inhibition assay by the spectrometric method; assay type: biochemical; details: for inhibitory efficacies against TDO enzyme: both spectrophotometric and kynurenine assay; for % of Enzyme inhibition (TDO): spectrophotometric
# T2 construct: 6xHis (N); made in house; host or cells: Escherichia coli BL21 (DE3) (pET 28a vector)
# Summary of the method: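 Purified enzyme (IDO1 40 nM in 100 mM KPB pH 6.5; TDO 25 nM in 50 mM KPB pH 8.0) was run with 150 µM L-Trp, ascorbate, methylene blue and catalase at 37 °C for 1 h. Inhibitors were tested from 100 µM to 32 nM. After TCA quench, kynurenine was read with pDMAB at 480 nm.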
# [2] = target: T3, IDO1 enzyme (ferric and deoxy-ferrous) (Homo sapiens, UniProt P14902); assay: Binding analysis by UV-Vis spectroscopic measurement; details: for Soret band red-shift: both ferric-IDO1 and deoxy-ferrous-IDO1; for Q-band shift: deoxy-ferrous-IDO1, Q-band at 551 nm for only enzyme
# T3 construct: made in house; host or cells: Escherichia coli M15 (pQE30 vector with pREP4 plasmid)
# Experimental: Figure 4 Binding properties of the potent compounds. Absorption spectra of ferric-IDO1 (A) and deoxy-ferrous-IDO1 enzyme (B) in the absence and presence of the compounds (20 μM) in 100 mM phosphate buffer at pH 6.5. [IDO1] = 0.65 μM. The ferrous-deoxy reaction environment was generated by adding Na2S2O4 to the solution under N2 atmosphere. The binding isotherms were generated from the response unit (RU) at 60 sec (average of triplicate measurements) versus the concentration of the compounds. A solid line represents a theoretical curve constructed from Rmax and Kd values determined by nonlinear least-squares analysis of the isotherms (C). 20 mm HEPES buffer, pH 7.4, with 0.16 m KCl was used for all SPR measurements. […] The model structures were generated using MoleGro Virtual Docker, version 6.0. The oxygen and nitrogen atoms are shown in red and blue, respectively. Residues involved in interactions through hydrogen bond formation are shown using dashed lines (yellow). Images were generated using PyMol.
# The efficacy of the compound’s direct binding to the enzyme active site was measured by UV-Vis spectroscopic analysis[26]–[28],[30]. All the measurements were performed at room temperature using 100 mM KPB (pH 6.5), purified hIDO1 enzyme (3 µM), and selected compounds (20 µM. The deoxy-reaction system was generated by injecting Na2S2O4 (~10-fold excess) into the solution pre-purged with N2 gas.
# IDO1 = IDO1 (Homo sapiens, UniProt P14902); assay: Circular dichroism analysis of IDO1 enzyme; set-up: made in house; host or cells: Escherichia coli M15 (pQE30 vector with pREP4 plasmid)
# Experimental: The Circular Dichroism (CD) spectra of the IDO1 enzyme in the absence or presence of compounds were recorded with a Jasco-810-spectropolarimeter according to the reported procedure[37],[38]. Samples of rIDO1 (2 μM) were prepared in 10 mM KPB buffer (pH 6.5) in a […] quartz cuvette. Spectra were recorded by varying the concentration of the compound (250 nM to 4 µM) using a 1 mL quartz cuvette of 1 cm path length with a Jasco J-1500 spectropolarimeter at 17 °C. Also the spectra were collected at a scan rate […] and 1 nm bandwidth from 200 nm to 260 nm with three times scan for averaging. All final spectra were corrected for buffer background CD signals. The % of the secondary structures of the IDO1 enzyme was analyzed using the inbuilt software of the instrument.
# Sequence of IDO1 (P14902 whole entry): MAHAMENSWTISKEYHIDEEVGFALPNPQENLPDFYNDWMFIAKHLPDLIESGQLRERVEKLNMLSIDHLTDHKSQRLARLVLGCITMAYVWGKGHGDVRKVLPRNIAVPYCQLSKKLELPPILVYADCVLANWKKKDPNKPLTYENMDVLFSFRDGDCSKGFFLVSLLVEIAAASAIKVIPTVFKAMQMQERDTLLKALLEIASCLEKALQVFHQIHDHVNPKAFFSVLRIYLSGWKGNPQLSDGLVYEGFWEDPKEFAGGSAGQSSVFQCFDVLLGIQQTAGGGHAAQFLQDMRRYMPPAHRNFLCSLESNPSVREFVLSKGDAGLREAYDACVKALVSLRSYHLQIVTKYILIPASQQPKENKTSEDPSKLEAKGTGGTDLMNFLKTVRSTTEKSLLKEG
# T3 sequence (P14902 whole entry): as above
# T2 sequence (P48775 whole entry): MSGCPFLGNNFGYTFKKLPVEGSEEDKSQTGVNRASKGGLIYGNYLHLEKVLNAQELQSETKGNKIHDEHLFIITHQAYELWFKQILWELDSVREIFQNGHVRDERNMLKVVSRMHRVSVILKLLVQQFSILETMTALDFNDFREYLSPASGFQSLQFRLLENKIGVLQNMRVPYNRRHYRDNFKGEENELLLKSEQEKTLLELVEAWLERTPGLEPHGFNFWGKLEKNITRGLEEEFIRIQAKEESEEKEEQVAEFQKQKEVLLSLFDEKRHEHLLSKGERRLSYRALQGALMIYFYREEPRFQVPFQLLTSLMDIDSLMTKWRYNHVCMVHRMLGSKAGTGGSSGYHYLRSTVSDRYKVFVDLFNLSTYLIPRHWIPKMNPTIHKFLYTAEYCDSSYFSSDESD
# T1 sequence (P48775 whole entry): as above
SMILES,% Of inhibition for TDO enzyme (TDO enzyme; 32 nM),% Of inhibition for TDO enzyme (TDO enzyme; 160 nM),% Of inhibition for TDO enzyme (TDO enzyme; 800 nM),% Of inhibition for TDO enzyme (TDO enzyme; 4 µM),% Of inhibition for TDO enzyme (TDO enzyme; 20 µM),% Of inhibition for TDO enzyme (TDO enzyme; 100 µM),inhibitory efficacies against TDO enzyme [1],% of Enzyme inhibition (TDO) ([1]; 32 nM),% of Enzyme inhibition (TDO) ([1]; 160 nM),% of Enzyme inhibition (TDO) ([1]; 800 nM),% of Enzyme inhibition (TDO) ([1]; 4 µM),% of Enzyme inhibition (TDO) ([1]; 20 µM),% of Enzyme inhibition (TDO) ([1]; 100 µM),Soret band red-shift [2],Q-band shift [2],"% of Secondary structural elements, Beta (IDO1; compound 0.25 µM)","% of Secondary structural elements, Helix (IDO1; compound 0.25 µM)","% of Secondary structural elements, Random (IDO1; compound 0.25 µM)","% of Secondary structural elements, Turn (IDO1; compound 0.25 µM)","% of Secondary structural elements, Beta (IDO1; compound 0.5 µM)",further results
CCOC(=O)c1n[nH]nc1-c1ccc(F)c(F)c1 [Compound 2i],34%,47%,49%,65%,63%,83%,moderate to poor,2%,9%,12%,15%,23%,28%,5–8 nm,10–13 nm,0%,28%,37.9%,34.1%,0%,"% of Secondary structural elements, Helix (IDO1; compound 0.5 µM): 28.7%; % of Secondary structural elements, Random (IDO1; compound 0.5 µM): 36.1%; % of Secondary structural elements, Turn (IDO1; compound 0.5 µM): 35.2%; % of Secondary structural elements, Beta (IDO1; compound 1 µM): 0%; % of Secondary structural elements, Helix (IDO1; compound 1 µM): 30.2%; % of Secondary structural elements, Random (IDO1; compound 1 µM): 33.5%; % of Secondary structural elements, Turn (IDO1; compound 1 µM): 36.3%; % of Secondary structural elements, Beta (IDO1; compound 2 µM): 0%; % of Secondary structural elements, Helix (IDO1; compound 2 µM): 30.5%; % of Secondary structural elements, Random (IDO1; compound 2 µM): 33.8%; % of Secondary structural elements, Turn (IDO1; compound 2 µM): 35.7%; % of Secondary structural elements, Beta (IDO1; compound 4 µM): 0%; % of Secondary structural elements, Helix (IDO1; compound 4 µM): 30.5%; % of Secondary structural elements, Random (IDO1; compound 4 µM): 35.7%; % of Secondary structural elements, Turn (IDO1; compound 4 µM): 33.8%"
O=C(N/C(Cc1ccc(O)cc1)=N\O)c1n[nH]nc1-c1ccc(F)c(F)c1 [Compound 4i],15%,25%,26%,50%,66%,73%,moderate to poor,4%,7%,14%,24%,42%,55%,5–8 nm,10–13 nm,0.7%,27.8%,37.6%,33.9%,0%,"% of Secondary structural elements, Helix (IDO1; compound 0.5 µM): 28%; % of Secondary structural elements, Random (IDO1; compound 0.5 µM): 38.1%; % of Secondary structural elements, Turn (IDO1; compound 0.5 µM): 33.9%; % of Secondary structural elements, Beta (IDO1; compound 1 µM): 0%; % of Secondary structural elements, Helix (IDO1; compound 1 µM): 27.6%; % of Secondary structural elements, Random (IDO1; compound 1 µM): 40.6%; % of Secondary structural elements, Turn (IDO1; compound 1 µM): 31.8%; % of Secondary structural elements, Beta (IDO1; compound 2 µM): 0%; % of Secondary structural elements, Helix (IDO1; compound 2 µM): 29.8%; % of Secondary structural elements, Random (IDO1; compound 2 µM): 42.6%; % of Secondary structural elements, Turn (IDO1; compound 2 µM): 27.6%; % of Secondary structural elements, Beta (IDO1; compound 4 µM): 0%; % of Secondary structural elements, Helix (IDO1; compound 4 µM): 31.8%; % of Secondary structural elements, Random (IDO1; compound 4 µM): 38.8%; % of Secondary structural elements, Turn (IDO1; compound 4 µM): 29.4%"
NC(=O)c1n[nH]nc1-c1ccc(F)c(F)c1 [Compound 3i],10%,18%,21%,18%,37%,52%,moderate to poor,5%,11%,14%,26%,33%,49%,5–8 nm,10–13 nm,0%,30.1%,35.8%,34.1%,0%,"% of Secondary structural elements, Helix (IDO1; compound 0.5 µM): 29.4%; % of Secondary structural elements, Random (IDO1; compound 0.5 µM): 36.8%; % of Secondary structural elements, Turn (IDO1; compound 0.5 µM): 33.8%; % of Secondary structural elements, Beta (IDO1; compound 1 µM): 0%; % of Secondary structural elements, Helix (IDO1; compound 1 µM): 29.8%; % of Secondary structural elements, Random (IDO1; compound 1 µM): 35.8%; % of Secondary structural elements, Turn (IDO1; compound 1 µM): 34.5%; % of Secondary structural elements, Beta (IDO1; compound 2 µM): 0%; % of Secondary structural elements, Helix (IDO1; compound 2 µM): 28.5%; % of Secondary structural elements, Random (IDO1; compound 2 µM): 40.8%; % of Secondary structural elements, Turn (IDO1; compound 2 µM): 30.7%; % of Secondary structural elements, Beta (IDO1; compound 4 µM): 0%; % of Secondary structural elements, Helix (IDO1; compound 4 µM): 30.7%; % of Secondary structural elements, Random (IDO1; compound 4 µM): 60.4%; % of Secondary structural elements, Turn (IDO1; compound 4 µM): 8.9%"
